Reference: patent US11103603B2, “18F-labeled compounds for PET imaging and uses thereof” (The University of North Carolina at Chapel Hill, priority 2016, dated 2021)

Tests used:
IDO1 enzyme = IDO1 enzyme (Homo sapiens, UniProt P14902); assay: IDO1 enzyme assay (substrate test, absorbance at 490 nm); format: biochemical; details: for substrate to IDO1 enzyme: FIG. 7A; for absorbance at 490 nm: reaction containing the compound, results from 3 independent assays, control reaction had no absorbance
Sequence of IDO1 enzyme (P14902 whole entry, species assumed): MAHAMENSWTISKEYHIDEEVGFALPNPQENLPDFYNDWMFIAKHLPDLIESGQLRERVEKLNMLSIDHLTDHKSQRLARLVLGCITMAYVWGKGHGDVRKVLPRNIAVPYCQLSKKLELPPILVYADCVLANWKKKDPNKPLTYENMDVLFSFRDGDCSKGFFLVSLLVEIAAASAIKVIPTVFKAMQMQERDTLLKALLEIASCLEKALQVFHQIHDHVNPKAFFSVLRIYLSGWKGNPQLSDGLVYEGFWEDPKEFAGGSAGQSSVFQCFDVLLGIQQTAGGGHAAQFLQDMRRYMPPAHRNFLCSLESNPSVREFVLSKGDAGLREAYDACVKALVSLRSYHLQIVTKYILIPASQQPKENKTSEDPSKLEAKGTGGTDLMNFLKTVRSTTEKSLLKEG
Description: (§1) (D) Decay-corrected whole-body small PET images of B16F10 melanoma after 30 min injection of 5-[^18]F-AMT.
(§2) Among the agents synthesized, 5-[^18F]F-AMT was first evaluated in vitro. In order to ensure that 5-[^18F]F-AMT could be used for IDO imaging, cell- and enzyme-based assays were performed. It was first tested whether 5-[^18F]F-AMT is a substrate for the IDO enzyme, and the result compared with that of the natural substrate Trp and a known IDO agent, α-methyl-L-tryptophan (AMT). […] Therefore, a cell-based assay was performed to further evaluate the agents. The uptake of 5-[^18F]F-AMT in IFNγ-treated cells was 3.474±0.6451% compared with 0.50±0.28% in control cells after 1 h incubation (p<0.001) (FIG. 7C). […] The serotonin pathway is a competitive metabolic route for Trp and its derivatives. In the first step Tph adds a hydroxyl group to position 5 of the indole ring. It was evaluated whether the introduction of fluorine at the 5-position would affect metabolism by Tph. As shown in) (FIG. 7B), immediately after adding L-Trp to the reaction system containing the tryptophan hydroxylase enzyme, the fluorescence signal increased from a baseline value of −0.266 to 40.885 and reached a peak value 58.350 at 26 min. Immediately after adding AMT to the reaction system, the fluorescence signal increased from a baseline value of −0.312 to 21.145 and reached a peak value of 36.607 at 34 min.

[1] = system: tryptophan hydroxylase enzyme; assay: Protein based tryptophan hydroxylase (Tph) assay, fluorescence signal; format: biochemical; details: for substrate quality for Tph: compared with Trp and AMT; for fluorescence signal immediately after adding compound: immediately after adding to reaction system containing tryptophan hydroxylase; for fluorescence signal peak value: peak of time course
Description: as §2

HeLa cells = assay: Cell uptake of tracer in HeLa cells with or without IFNγ treatment and NLG919; format: cell-based
Description: as §1, §2

B16F10 melanoma = assay: Small animal PET imaging of B16F10 melanoma tumor xenograft mouse model; format: in vivo; details: 200 μCi injected, image at 30 min
Description: as §1
FIGS. 8A-8B show (A) decay-corrected whole-body small PET images of B16F10 melanoma 0.5 h, 1.4 h, and 20 h after injection of ^124I-AMT; (B) decay-corrected whole-body small PET images of B16F10 melanoma 50 min after injection of ^18F—N-Me-Trp.
A tumor xenograft mouse model was produced with a B16F10 melanoma. 200 μCi of 5-^18F-AMT was injected and a PET image was obtained at 30 min. (FIG. 7D).
To test the effectiveness of therapeutic compounds of the invention, a tumor […] xenograft mouse model was produced with a B16F10 melanoma. 1 (FIG. 8A) or ^18F—N-Me-Trp (FIG. 8B) were injected in the tail vein and PET images obtained.

SMILES | substrate to IDO1 enzyme (IDO1 enzyme) | absorbance at 490 nm (IDO1 enzyme) | time at which peak fluorescence was reached [1] | substrate quality for Tph [1] | fluorescence signal immediately after adding compound [1] | fluorescence signal peak value [1] | increase of HeLa cells uptake after IFN-γ treatment (HeLa cells; HeLa cells, IFN-γ treated vs untreated) | uptake in IFNγ-treated cells incubated with NLG919 (HeLa cells; IFNγ-treated cells + IDO1 inhibitor NLG919) | uptake in IFNγ-treated cells (HeLa cells; IFNγ-treated cells, 1 h incubation) | uptake in control cells (HeLa cells; control cells (no IFNγ), 1 h incubation) | PET image of tumor (B16F10 melanoma)
CC(N)(Cc1c[nH]c2ccc(F)cc12)C(=O)O (stereo not shown) [5-F-AMT] | substrates | 0.16±0.03 | 25 min | not a good substrate | 5.635 | 8.176 |  |  |  |  | 
CC(N)(Cc1c[nH]c2ccc([18F])cc12)C(=O)O (stereo not shown) [5-[^18F]F-AMT] |  |  |  | worse substrate |  |  | 7 times | 0.88±0.12% | 3.474±0.6451% | 0.50±0.28% | clearly shows the tumor
C[C@](N)(Cc1c[nH]c2ccccc12)C(=O)O [AMT, α-methyl-L-tryptophan] | substrates | 0.19±0.02 | 34 min |  | 21.145 | 36.607 |  |  |  |  | 
N[C@@H](Cc1c[nH]c2ccccc12)C(=O)O [L-Trp, L-tryptophan] | substrates | 0.21±0.01 | 26 min |  | 40.885 | 58.350 |  |  |  |  | 
